Ends that are not written are not given here.
Tests used:
human Orexin-1 receptor = molecular target: T1, human Orexin-1 receptor (Homo sapiens, UniProt O43613); assay: Antagonist affinity at human Orexin-1 receptor using FLIPR ([Ca2+]i); assay type: cell-based; settings: functional pKi from IC50 by modified Cheng-Prusoff correction
T1 sequence (O43613 1-425 A280G): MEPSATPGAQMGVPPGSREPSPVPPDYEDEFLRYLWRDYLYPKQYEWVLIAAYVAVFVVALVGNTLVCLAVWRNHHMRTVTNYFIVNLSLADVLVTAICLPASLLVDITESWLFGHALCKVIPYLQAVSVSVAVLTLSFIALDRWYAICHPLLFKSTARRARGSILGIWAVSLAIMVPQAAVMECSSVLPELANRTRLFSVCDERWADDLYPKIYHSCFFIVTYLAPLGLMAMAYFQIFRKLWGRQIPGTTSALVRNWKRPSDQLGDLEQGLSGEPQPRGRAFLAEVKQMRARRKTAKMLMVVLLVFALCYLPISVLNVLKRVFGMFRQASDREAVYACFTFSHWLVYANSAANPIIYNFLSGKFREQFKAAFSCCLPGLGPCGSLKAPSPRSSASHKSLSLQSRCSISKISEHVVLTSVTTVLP
Source text: (§1) Determination of antagonist affinity at human Orexin-1 and 2 receptors using FLIPR
(§2) Adherent Chinese Hamster Ovary (CHO) cells, stably expressing the recombinant human Orexin-1 or human Orexin-2 receptors or Rat Basophilic Leukaemia Cells (RBL) stably expressing recombinant rat Orexin-1 or rat Orexin-2 receptors were maintained in culture in Alpha Minimum Essential Medium (Gibco/Invitrogen, cat. no.; 22571-020), supplemented with 10% decomplemented foetal bovine serum (Life Technologies, cat. no. 10106-078) and 400 μg/mL Geneticin G418 (Calbiochem, cat. no. 345810). Cells were grown as monolayers under 95%:5% air: CO2 at 37° C.
(§3) The sequences of the human orexin 1, human orexin 2, rat orexin 1 and rat orexin 2 receptors used in this example were as published in Sakurai, T. et al (1998) Cell, 92 pp 573 to 585. Some examples were tested against the human orexin 1 receptor as published in Sakurai et al supra with the exception that the amino acid residue at position 280 was alanine and not glycine.
(§4) Cells were seeded into black clear-bottom 384-well plates (density of 20,000 cells per well) in culture medium as described above and maintained overnight (95%:5% air:CO2 at 37° C.). On the day of the experiment, culture medium were discarded and the cells washed three times with standard buffer (NaCl, 145 mM; KCl, 5 mM; HEPES, 20 mM; Glucose, 5.5 mM; MgCl2, 1 mM; CaCl2, 2 mM) added with Probenecid 2.5 mM. The plates were then incubated at 37° C. for 60 minutes in the dark with 2 μM FLUO-4AM dye to allow cell uptake of the FLUO-4AM, which is subsequently converted by intracellular esterases to FLUO-4, which is unable to leave the cells. After incubation, cells were washed three times with standard buffer to remove extracellular dye and 30 μL of buffer were left in each well after washing.
(§5) Compounds of the invention were tested in a final assay concentration range from 1.66×10^−5M to 1.58×10^−11M. Compounds of the invention were dissolved in dimethylsulfoxide (DMSO) at a stock concentration of 10 mM. These stock solutions were serially diluted with DMSO and 1 μL of each dilution was transferred to a 384 well compound plate. Immediately before introducing compound to the cells, buffer solution (50 μl/well) was added to this plate. To allow agonist stimulation of the cells, a stock plate containing a solution of human orexin A (hOrexin A) was diluted with buffer to final concentration just before use. This final concentration of hOrexin A was equivalent to the calculated EC80 for hOrexinA agonist potency in this test system. This value was obtained by testing hOrexinA in concentration response curve (at least 16 replicates) the same day of the experiment.
(§6) The loaded cells were then incubated for 10 min at 37° C. with test compound. The plates were then placed into a FLIPR™ (Molecular Devices, UK) to monitor cell fluorescence (λex=488 nm, λEM=540 nm) (Sullivan E, Tucker E M, Dale I L. Measurement of [Ca^2+]i using the fluometric imaging plate reader (FLIPR). In: Lambert DG (ed.), Calcium Signaling Protocols. New Jersey: Humana Press, 1999, 125-136). A baseline fluorescence reading was taken over a 5 to 10 second period, and then 10 μL of EC80 hOrexinA solution was added. The fluorescence was then read over a […] period.
Functional responses using FLIPR were measured as peak fluorescence intensity minus basal fluorescence and expressed as a percentage of a non-inhibited Orexin-A-induced response on the same plate. Iterative curve-fitting and parameter estimations were carried out using a four parameter logistic model and Microsoft Excel (Bowen W P, Jerman J C. Nonlinear regression using spreadsheets. Trends Pharmacol. Sci. 1995; 16: 413-417). […]

human Orexin-2 receptor = molecular target: T2, human Orexin-2 receptor (Homo sapiens, UniProt O43614); assay: Antagonist affinity at human Orexin-2 receptor using FLIPR ([Ca2+]i); assay type: cell-based; settings: functional pKi from IC50 by modified Cheng-Prusoff correction, read-out: fpKi Orexin 2 receptor (converted)
T2 construct: expressed in transfected cells
T2 sequence (O43614 1-444): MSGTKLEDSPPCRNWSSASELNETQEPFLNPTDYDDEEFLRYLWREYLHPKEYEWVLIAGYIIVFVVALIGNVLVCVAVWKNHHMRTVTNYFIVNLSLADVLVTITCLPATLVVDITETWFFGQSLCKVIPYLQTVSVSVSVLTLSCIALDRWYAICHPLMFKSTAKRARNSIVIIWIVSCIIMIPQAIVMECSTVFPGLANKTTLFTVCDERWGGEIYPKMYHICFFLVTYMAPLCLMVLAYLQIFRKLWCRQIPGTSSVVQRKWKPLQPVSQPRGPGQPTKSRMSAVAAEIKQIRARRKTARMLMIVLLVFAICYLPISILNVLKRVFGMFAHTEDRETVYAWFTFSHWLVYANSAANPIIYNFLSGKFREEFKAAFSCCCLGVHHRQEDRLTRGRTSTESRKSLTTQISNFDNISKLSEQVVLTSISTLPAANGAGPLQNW
Source text: as §1, §2, §3, §4, §5, §6
Functional responses using FLIPR were measured as peak fluorescence intensity minus basal fluorescence and expressed as a percentage of a non-inhibited Orexin-A-induced response on the same plate. Iterative curve-fitting and parameter estimations were carried out using a four parameter logistic model and Microsoft Excel (Bowen W P, Jerman J C. Nonlinear regression using spreadsheets. Trends Pharmacol. Sci. 1995; 16: 413-417).

rats [1] = settings: cited from earlier work
rats [2] = settings: cited from earlier work; remark: listed apart in the source
rats [3] = settings: central administration at the onset of the normal sleep period; cited from earlier work
freely-feeding rats = settings: central administration, 4 hour time period; cited from earlier work

| Compound | fpKi Orexin 1 receptor (human Orexin-1 receptor) | Ki (human Orexin-2 receptor) | also measured |
| --- | --- | --- | --- |
| Cc1ccc(-c2ncccc2C)c(C(=O)N2C[C@@H]3C[C@@H]3C[C@H]2CNc2ccc(C(F)(F)F)cn2)n1 [Example 51, N-({(1R,4S,6R)-3-[(3,6′-dimethyl-2,3′-bipyridin-2′-yl)carbonyl]-3-azabicyclo[4.1.0]hept-4-yl}methyl)-5-(trifluoromethyl)-2-pyridinamine] | 9.2 | 15.8 nM | – |
| Cc1cnn(-c2ccc(C)nc2C(=O)N2C[C@@H]3C[C@@H]3C[C@H]2CNc2ccc(C(F)(F)F)cn2)c1 [Example 52, N-[((1R,4S,6R)-3-{[6-methyl-3-(4-methyl-1H-pyrazol-1-yl)-2-pyridinyl]carbonyl}-3-azabicyclo[4.1.0]hept-4-yl)methyl]-5-(trifluoromethyl)-2-pyridinamine] | 9.2 | 0.398 nM | – |
| Cc1ccc(C(=O)N2C[C@@H]3C[C@@H]3C[C@H]2CNc2ccc(C(F)(F)F)cn2)nc1-c1ncccn1 [Example 53, N-[((1R,4S,6R)-3-{[5-methyl-6-(2-pyrimidinyl)-2-pyridinyl]carbonyl}-3-azabicyclo[4.1.0]hept-4-yl)methyl]-5-(trifluoromethyl)-2-pyridinamine] | 6.0 | > 3310 nM | – |
| Cc1ccc(NC[C@@H]2C[C@H]3C[C@H]3CN2C(=O)c2nc(C)ccc2OCC2CC2)nc1 [Example 54, N-{[(1R,4S,6R)-3-({3-[(cyclopropylmethyl)oxy]-6-methyl-2-pyridinyl}carbonyl)-3-azabicyclo[4.1.0]hept-4-yl]methyl}-5-methyl-2-pyridinamine] | 9.3 | 3.98 nM | – |
| CCOc1ccc(C)nc1C(=O)N1C[C@@H]2C[C@@H]2C[C@H]1CNc1ncc(C)cn1 [Example 55, N-[((1R,4S,6R)-3-{[3-(ethyloxy)-6-methyl-2-pyridinyl]carbonyl}-3-azabicyclo[4.1.0]hept-4-yl)methyl]-5-methyl-2-pyrimidinamine] | 9.1 | 100 nM | – |
| CCOc1ccc(C)nc1C(=O)N1C[C@@H]2C[C@@H]2C[C@H]1CNc1ncc(C(F)(F)F)cn1 [Example 56, N-[((1R,4S,6R)-3-{[3-(ethyloxy)-6-methyl-2-pyridinyl]carbonyl}-3-azabicyclo[4.1.0]hept-4-yl)methyl]-5-(trifluoromethyl)-2-pyrimidinamine] | 9.5 | – | – |
| CCCOc1ccc(C)nc1C(=O)N1C[C@@H]2C[C@@H]2C[C@H]1CNc1ncc(C(F)(F)F)cn1 [Example 57, N-[((1R,4S,6R)-3-{[6-methyl-3-(propyloxy)-2-pyridinyl]carbonyl}-3-azabicyclo[4.1.0]hept-4-yl)methyl]-5-(trifluoromethyl)-2-pyrimidinamine] | 9.5 | 63.1 nM | – |
| CCCOc1ccc(C)nc1C(=O)N1C[C@@H]2C[C@@H]2C[C@H]1CNc1cnc(C)c(C)n1 [Example 58, 5,6-dimethyl-N-[((1R,4S,6R)-3-{[6-methyl-3-(propyloxy)-2-pyridinyl]carbonyl}-3-azabicyclo[4.1.0]hept-4-yl)methyl]-2-pyrazinamine] | 9.0 | 1.26 nM | – |
| Cc1coc(-c2ccc(C)nc2C(=O)N2C[C@@H]3C[C@@H]3C[C@H]2CNc2ncc(C(F)(F)F)cn2)n1 [Example 59, N-[((1R,4S,6R)-3-{[6-methyl-3-(4-methyl-1,3-oxazol-2-yl)-2-pyridinyl]carbonyl}-3-azabicyclo[4.1.0]hept-4-yl)methyl]-5-(trifluoromethyl)-2-pyrimidinamine] | 6.0 | 1580 nM | – |
| Cc1nc2ccc(NC(=O)Nc3ccnc4cccnc34)cc2o1 [SB334867] | – | – | hedonic eating (rats [1]): potently reduced; high-fat pellet self-administration (rats [2]): attenuated |
| orexin-A: polypeptide ligand for the orexin-1 receptor; an agonist of the orexin receptors (QPLPDCCRQKTCSCRLYELLHGAGNHAAGILTL; ends and bridges not checked; cysteine pairing not given here; UniProt O43612 34-66, looked up) | – | – | arousal (sleep/EEG) (rats [3]): dose-related increase in arousal; increase of food intake over control rats receiving vehicle (freely-feeding rats): approximately four-fold |

From patent US20100144760A1, “NOVEL COMPOUNDS” (priority 2008, published 2010)
